Assay results as given in PubChem BioAssay AID1963830 (Molecular Pharmacology Branch, DTP, NCI, 2024).

Test system: 922993-354-T-J3-PDC complex spheroid viability
Experiment: Anticancer human tumor 922993-354-T-J3-PDC patient-derived endometrial carcinoma cell line growth inhibition [POLQ]
Details: for IC50: curve of first compound; for viability, T/C: stronger effect = lower value
Outline: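 Three-cell-type spheroids modelling solid tumor plus stroma served as the readout system; POL inhibitors were tested individually and in combination, concentration ranges set by clinical Cmax where known.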
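Further: spheroids exposed to the agents for one week.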
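Wherever viability, T/C is given: 100% = DMSO vehicle control wells.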

COc1cccc2c1C(=O)c1c(O)c3c(c(O)c1C2=O)CC(O)(C(=O)CO)CC3OC1CC(N)C(O)C(C)O1 (configuration not stated) + Nc1ccc(C#CCN(C(=O)Cc2ncc(C(F)(F)F)cc2C(F)(F)F)c2ccc(F)cc2)nn1
IC50 (second compound 0.0316 µM): 5.58 µM
IC50 (second compound 0.1 µM): 5.44 µM
IC50 (second compound 0.316 µM): 5.79 µM
IC50 (second compound 1 µM): 5.39 µM
IC50 (second compound 3.16 µM): 2.31 µM
IC50 (second compound 10 µM): 0.24 µM
viability, T/C (second compound 0.0316 µM, first compound 0.0316 µM): 103%
viability, T/C (second compound 0.0316 µM, first compound 0.1 µM): 105%
viability, T/C (second compound 0.0316 µM, first compound 0.316 µM): 91.3%
viability, T/C (second compound 0.0316 µM, first compound 1 µM): 84.9%
viability, T/C (second compound 0.0316 µM, first compound 3.16 µM): 74.7%
viability, T/C (second compound 0.0316 µM, first compound 10 µM): 28.3%
viability, T/C (second compound 0.1 µM, first compound 0.0316 µM): 102%
viability, T/C (second compound 0.1 µM, first compound 0.1 µM): 103%
viability, T/C (second compound 0.1 µM, first compound 0.316 µM): 92.3%
viability, T/C (second compound 0.1 µM, first compound 1 µM): 87.9%
viability, T/C (second compound 0.1 µM, first compound 3.16 µM): 74.3%
viability, T/C (second compound 0.1 µM, first compound 10 µM): 24.9%
viability, T/C (second compound 0.316 µM, first compound 0.0316 µM): 105%
viability, T/C (second compound 0.316 µM, first compound 0.1 µM): 101%
viability, T/C (second compound 0.316 µM, first compound 0.316 µM): 99.6%
viability, T/C (second compound 0.316 µM, first compound 1 µM): 85.4%
viability, T/C (second compound 0.316 µM, first compound 3.16 µM): 71%
viability, T/C (second compound 0.316 µM, first compound 10 µM): 32.1%
viability, T/C (second compound 1 µM, first compound 0.0316 µM): 98.9%
viability, T/C (second compound 1 µM, first compound 0.1 µM): 105%
viability, T/C (second compound 1 µM, first compound 0.316 µM): 96.2%
viability, T/C (second compound 1 µM, first compound 1 µM): 80.7%
viability, T/C (second compound 1 µM, first compound 3.16 µM): 72.1%
viability, T/C (second compound 1 µM, first compound 10 µM): 28.2%
viability, T/C (second compound 3.16 µM, first compound 0.0316 µM): 95.2%
viability, T/C (second compound 3.16 µM, first compound 0.1 µM): 93.4%
viability, T/C (second compound 3.16 µM, first compound 0.316 µM): 79.7%
viability, T/C (second compound 3.16 µM, first compound 1 µM): 75.4%
viability, T/C (second compound 3.16 µM, first compound 3.16 µM): 39.9%
viability, T/C (second compound 3.16 µM, first compound 10 µM): 17.5%
viability, T/C (second compound 10 µM, first compound 0.0316 µM): 78.7%
viability, T/C (second compound 10 µM, first compound 0.1 µM): 75.2%
viability, T/C (second compound 10 µM, first compound 0.316 µM): 41.5%
viability, T/C (second compound 10 µM, first compound 1 µM): 14.5%
viability, T/C (second compound 10 µM, first compound 3.16 µM): 38.1%
viability, T/C (second compound 10 µM, first compound 10 µM): 14.8%
